Data as given in patent publication US6642177B1, “Sarcoslnates as glufosinate adjuvants” (Hampshire Chemical Corp., priority 1998, dated 2003).

Assays:
Assay type in all cases: in vivo
[1] = test system: Plant Species (Setia, Porol, Amabl, Polpy, Sotlu); nuisance weeds; assay: % control over the five plant species (total, average) 27 days after treatment; conditions: rate 0.32 lbs. ai/A
[2] = test system: Setiu + Foxtail, Yellow - Sataria Leutescens; assay: % control of yellow foxtail 27 days after treatment; conditions: rate 0.32 lbs. ai/A
[3] = test system: Polpy = Smartweed, Pennsylvania - Polygonium pensylvanicum; assay: % control of Pennsylvania smartweed 27 days after treatment; conditions: rate 0.32 lbs. ai/A
[4] = test system: Amabl = Pigweed, Prostrate - Amaranthus blitoides; assay: % control of prostrate pigweed 27 days after treatment; conditions: rate 0.32 lbs. ai/A
[5] = test system: Porol = Purslane, Common - Portulaca oleraca; assay: % control of common purslane 27 days after treatment; conditions: rate 0.32 lbs. ai/A
[6] = test system: glufosinate tolerant field corn variety Pioneer 34A55; assay: Phytotoxicity rating on glufosinate tolerant field corn (chlorosis, necrosis, abnormal growth); conditions: 1.46 Lbs ai/acre, 10 ml into the whorl
Protocol: Seeds were germinated in 4 inch pots and maintained for one month with regular watering and temperatures to simulate field conditions. […] Each treatment was replicated four times in a randomized complete block design. […] The volume of 10 ml was selected to fill the whorl of the largest plant in the study, all others were filled to running over.
An application volume of 15 gal/acre was used to determine the mix concentration used.
The treatments were evaluated for phytotoxicity in the form of chlorosis, necrosis and abnormal growth by visually inspecting each plant. When damage was present, each plant was given a damage rating from 0 to 10 with 0 indicating no effect and 10 indicating death.

[7] = test system: Setia = Foxtail., Giant - setaria; assay: % control of giant foxtail 27 days after treatment; conditions: rate 0.32 lbs. ai/A

**Q.** “2-amino-4-(hydroxymethyl phosphinyl) butanoic acid [Glufosinate]” was tested. Which “% Control 27 Days After Treatment, Average” value ([1]; average over five plant species) did it give?
**A.** Its value is 71.00%.

**Q.** And the “% Control 27 Days After Treatment, Total” value ([1]; sum over five plant species)?
**A.** The value was 355.00%.

**Q.** What about the “% Control 27 Days After Treatment, Sotlu” value [2] of the same substance?
**A.** The value was 60.00%.

**Q.** And the “% Control 27 Days After Treatment, Polpy” value [3]?
**A.** The value was 81.67%.

**Q.** What about the “% Control 27 Days After Treatment, Amabl” value [4] of the same substance?
**A.** The value was 73.33%.

**Q.** And the “% Control 27 Days After Treatment, Porol” value [5]?
**A.** Its value is 78.33%.

**Q.** And the “Ratings 20 days after treatment (damage rating 0 to 10, 0 no effect, 10 death)” value [6]?
**A.** The value was 0.8 b.

**Q.** And the “% Control 27 Days After Treatment, Setia” value [7]?
**A.** Its value is 61.67%.
